pIC50: −log10 of the molar value.
Assays:
soybean lipoxygenase = target: T1, soybean lipoxygenase (Glycine max, UniProt P08170); assay: Inhibition of soybean lipoxygenase (UV absorbance-based enzyme assay); format: biochemical; conditions: for inhibition at 100 µM: read-out: LOX % inhibition
T1 construct: purchased Sigma Chemical, Co. (St. Louis, MO, USA)
T1 sequence (P08170 1-839): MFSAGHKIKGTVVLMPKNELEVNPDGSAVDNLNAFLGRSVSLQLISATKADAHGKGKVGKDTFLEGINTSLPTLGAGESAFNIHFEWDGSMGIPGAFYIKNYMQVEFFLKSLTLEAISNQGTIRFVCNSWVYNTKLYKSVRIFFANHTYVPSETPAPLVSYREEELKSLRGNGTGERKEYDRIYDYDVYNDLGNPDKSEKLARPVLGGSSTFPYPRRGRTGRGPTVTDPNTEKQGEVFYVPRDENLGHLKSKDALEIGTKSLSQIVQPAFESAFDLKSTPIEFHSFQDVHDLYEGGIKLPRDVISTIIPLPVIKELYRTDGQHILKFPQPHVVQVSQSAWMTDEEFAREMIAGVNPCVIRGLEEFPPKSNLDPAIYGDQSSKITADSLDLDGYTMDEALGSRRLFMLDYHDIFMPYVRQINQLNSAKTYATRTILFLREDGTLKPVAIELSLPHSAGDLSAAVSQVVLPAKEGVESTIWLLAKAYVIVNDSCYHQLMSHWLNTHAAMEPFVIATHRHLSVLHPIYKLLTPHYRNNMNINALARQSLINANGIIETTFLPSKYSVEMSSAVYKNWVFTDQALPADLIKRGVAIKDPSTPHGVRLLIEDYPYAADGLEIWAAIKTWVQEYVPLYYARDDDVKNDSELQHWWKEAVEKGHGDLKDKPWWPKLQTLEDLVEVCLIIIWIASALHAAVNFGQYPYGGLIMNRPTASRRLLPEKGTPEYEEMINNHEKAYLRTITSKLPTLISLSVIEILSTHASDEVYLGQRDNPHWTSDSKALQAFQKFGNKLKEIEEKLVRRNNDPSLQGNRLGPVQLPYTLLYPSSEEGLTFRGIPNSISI
Procedure: Lipoxygenase catalyzes the first two steps in the metabolism of arachidonic acid to leukotrienes. LTB4 generation is important in the pathogenesis of neutrophil-mediated inflammatory diseases with a marked relation to the severity of cardiovascular diseases, asthma and cancer. We evaluated the synthesized pyrroles for their ability to inhibit soybean LOX by the UV absorbance-based enzyme assay. […] The inhibition of COX-2, as a peroxidase, was determined by a colorimetric assay with the oxidation of N,N,N′,N′-tetramethyl-p-phenylenediamine (TMPD).
The tested compounds were dissolved in DMSO, and the final concentration was 100 μΜ. The compounds were incubated at room temperature with sodium linoleate as a substrate (0.1 mL) in a buffer solution of Tris:HCl (pH 9.00) and 0.2 mL of a solution of soybean lipoxygenase.

[1] = Superoxide radical scavenging activity (non-enzymatic, PMS/NADH, NBT method); conditions: 100 μM
Text: Superoxide anion radical is an active form of oxygen, and it is the product of the one-electron reduction of […] oxygen. Herein, superoxide radicals were formed by mixing phenazine methosulfate (PMS) with NADH and air-oxygen. The production of radicals was estimated with the nitroblue-tetrazolium method (NBT). From the tested pyrroles, Compounds 2i and 2iii were equipotent (57%) scavengers. […] In contrast, the dipole moment appeared to be important. The values of the dipole, as calculated by the program Spartan v.5.1.3.
The superoxide anion radicals were produced non-enzymatically by mixing phenazine methosulfate (PMS) with NADH and air-oxygen. The production of superoxide radicals was estimated with the nitroblue-tetrazolium (NBT) method with 3 μΜ PMS, 78 μΜ NADH and 25 μΜ NBT in 19 μΜ phosphate buffer pH 7.4. The absorbance was measured at 560 nm at room temperature. The tested compounds were added in the mixture 2 min before the addition of NADH [52].

trypsin = target: T2, trypsin (Bos taurus, UniProt P00760); assay: Inhibition of the proteolytic activity of trypsin; format: biochemical; conditions: bovine albumin substrate, pH 7.6; read-out: TP IC50 (inhibition of trypsin)
T2 construct: purchased Sigma Chemical, Co. (St. Louis, MO, USA); host or cells: bovine pancreas
T2 sequence (P00760 24-246): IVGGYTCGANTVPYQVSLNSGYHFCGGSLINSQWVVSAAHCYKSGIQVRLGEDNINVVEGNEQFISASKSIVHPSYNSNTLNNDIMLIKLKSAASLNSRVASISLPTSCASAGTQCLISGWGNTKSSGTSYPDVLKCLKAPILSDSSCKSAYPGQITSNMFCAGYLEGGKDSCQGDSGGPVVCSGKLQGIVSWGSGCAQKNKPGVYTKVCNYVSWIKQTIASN
Text: Trypsin is an enzyme with an active role in inflammation. Thus, we studied the anti-proteolytic ability of the pyrrole derivatives, using salicylic acid as a reference compound. […] Comparing Compounds 2iv and 2v, the insertion of an electron-acceptor substituent (Cl) on the phenyl ring (substituent Ar^2) and the simultaneous increase of the volume of substituent Ar^2 (expressed as molar refractivity) led to an enhancement of the anti-proteolytic activity.
Carrageenan, type K, was commercially available. Cycloxygenase-2 (COX-2) and interleukin-6 (IL-6) EIA Kit, Item No. 583371 were purchased from Cayman. Trolox was obtained from Aldrich Chemical Co. (Milwaukee, WI, USA). All starting materials were obtained from commercial sources, and they were used without further purification.
The tested compounds (concentrations varying from 10 μΜ–100 μΜ in DMSO) were dissolved in a phosphate buffer (0.1 M K2HPO4–NaH2PO4·2H2O, pH = 7.6), and 0.2 mL of trypsin 0.075 mg/mL were added. The mixture was incubated at room temperature for 20 min, and then, 1 mL of bovine albumin (6 g/100 mL) was added. The mixture was incubated at 37 °C for 30 min. The reaction was stopped with the addition of 1 mL of trichloroacetic acid (5% w/w) Separation of the phases followed, with measurement of the supernatants at 280 nm at room temperature. IC50 values were determined.

[2] = Interaction with the stable free radical DPPH (reducing activity); conditions: 1000 μM compound, DPPH 50 μM
Procedure: 2,2-Diphenyl-1-picrylhydrazyl (DPPH) is a lipophilic, free, stable radical, which absorbs at 517 nm (violet color). Upon reduction, decolorization is observed that is stoichiometric to the number of received electrons and is representative of the antioxidant ability of compounds. […] This interaction, which indicates their radical scavenging ability in an iron-free system, was measured at 100 and 1000 μM after 20 and 60 min, whereas the final concentration of DPPH was stable at 50 μΜ.
[…] The absorbance was measured at 517 nm after 20 and 60 min at room temperature.

Row | SMILES | inhibition at 100 µM (soybean lipoxygenase) [%] | O2^•− % superoxide radical scavenging activity [1] | pIC50 (trypsin) | RA % (interaction with DPPH) ([2]; 20 min) [%] | RA % (interaction with DPPH) ([2]; 60 min) [%] | pIC50 (soybean lipoxygenase; pH 9.00, read-out: LOX IC50)
1 | O=C(c1ccc(Cl)cc1)c1c[nH]cc1-c1cccc2ccccc12 [Compound 2v, (4-Chlorophenyl)[4-(naphth-1-yl)-1H-pyrrol-3-yl]methanone] | 32 | inactive | 5.10 | – | – | –
2 | O=C(c1cccs1)c1c[nH]cc1-c1ccc(OCc2ccc(Br)cc2)cc1 [Compound 2iii, (4-{4-[(4-Bromobenzyl)oxy]phenyl}-1H-pyrrol-3-yl)(thien-2-yl)methanone] | – | 57% | 5.05 | 4 | 5 | –
3 | O=C(c1ccccc1)c1c[nH]cc1-c1cccc2ccccc12 [Compound 2iv, [4-(Naphth-1-yl)-1H-pyrrol-3-yl](phenyl)methanone] | 10 | 76% | 4.19 | 8 | 10 | –
4 | O=C(c1cccs1)c1c[nH]cc1-c1cccc(Oc2ccccc2)c1 [Compound 2i, [4-(3-Phenoxyphenyl)-1H-pyrrol-3-yl](thien-2-yl)methanone] | – | 57% | 4.22 | – | – | 3.00

From article PMC6332026, “Synthesis and Pharmacochemistry of New Pleiotropic Pyrrolyl Derivatives” (Molecules, 2015)
